Data published in US11291675B2, “6′-sialyllactose for use in the treatment of hearing loss” (Rheinische Friedrich-Wilhelms-Universität Bonn, priority 2017, dated 2022).
Entries after “also recorded” stand apart in the source; their conditions may differ.

What was measured:
human THP-1 macrophages = test: Beads phagocytosis in LPS-activated THP-1 macrophages (flow cytometry); format: cell-based; details: THP-1 macrophages activated by 3 μg/ml LPS, 24 hours; 0.5 μM test substance; vs LPS alone
Description: The effect of 6′- and 3′-sialyllactose on beads phagocytosis was determined in the human mononuclear phagocyte cell line THP-1. The human mononuclear phagocyte cell line THP-1 was maintained in RPMI medium supplemented with 1% L-glutamine, 1% Penicillin/Streptomycin and 1% heat-inactivated chicken serum, at 5% CO2 and 37° C. For passaging, the cells were transferred to a 50 mL Falcon tube and centrifuged at 1300 rpm for 3 min. The supernatant was removed and the pellet was re-suspended in 5 mL of warm medium. For differentiation into macrophage-like cells, the cell density was adjusted to approximately 1×10^6 cells/mL. The cell suspension was mixed with 10 ng/mL PMA (Phorbol 12-myristate 13-acetate, Sigma) and distributed in volumes according to each experiment. Cells were incubated for 48 h, washed twice with medium and then cultured in medium for additional 48 h without PMA. For experimentation THP-1 macrophages were cultured in RPMI medium supplemented with 1% L-glutamine, 1% Penicillin/Streptomycin and 1% heat-inactivated chicken serum, at 5% CO2 and 37° C. […]
Beads phagocytosis was analyzed by flow cytometry (BD FACSCalibur) by quantification of the percentage of cells having ingested 2 or more beads.

[1] = tested on: CD68+ mononuclear phagocytes in the spiral ganglion; test: Macrophage activation (CD68+ cells) in the spiral ganglion, animal model of antibiotic-induced hearing loss; format: in vivo, mouse; details: seven consecutive days
Description: To determine the effect of 6′-sialyllactose on macrophage activation in the inner ear, one-week old C57BL/6 pubs of mice were treated subcutaneously with either 50 μl PBS, 50 μl of 200 mg/kgbw neomycin (Neo, Sigma, N5285) in PBS, or 50 μl of 200 mg/kgbw neomycin (Sigma, N5285) plus 100 mg/kgbw 6′-sialyllactose (Carbosynth, OS04398) in PBS or only PBS as vehicle control for seven consecutive days. Mice were sacrificed two weeks after the last injection.
For further investigations, cochleae of the mice were isolated, post-fixed in 4% paraformaldehyde (PFA), decalcified in 5% EDTA, incubated in 30% sucrose until fully soaked, embedded in a cryoprotectant and cut into 20 μm thin slices from the apex to the base of the cochlea with a cryostat. For quantification of the macrophage activation in the cochlea, cryosections from different levels of the cochlea were chosen and co-stained with antibodies against the macrophage activation marker CD68 and the cellular nuclei marker DAPI. […] The area of the spiral ganglion was selected and measured using ImageJ. The CD68-positive cells were counted within the chosen area and the cell density of the macrophage in the spiral ganglion was calculated and normalized to the PBS vehicle treated condition. Data were analyzed by one-way ANOVA with Bonferroni post-hoc correction.

[2] = tested on: sensory neurons in the spiral ganglion; test: Sensory neuron density (NeuN+ cells) in the spiral ganglion, animal model of antibiotic-induced hearing loss; format: in vivo, mouse; details: seven consecutive days
Description: One-week old C57BL/6 pubs of mice were treated subcutaneously with either 50 μl PBS, 50 μl of 200 mg/kgbw neomycin (Sigma, N5285) in PBS, or 50 μl of 200 mg/kgbw neomycin (Sigma, N5285) plus 100 mg/kgbw 6′-sialyllactose (Carbosynth, OS04398) in PBS for seven consecutive days. Mice were sacrificed 2 weeks after the last injection. For further investigations cochlea of the mice were isolated, post-fixed in 4% PFA, decalcified in 5% EDTA, incubated in 30% sucrose until fully soaked, embedded in a cryoprotectant and cut into 20 μm thin slices from the apex to base of the cochlea with a cryostat. For quantification of the sensory neurons in the cochlea, cryosections from different levels of the cochlea were chosen and stained with antibodies for neuronal nuclei (NeuN) and the cellular nuclei marker DAPI. Z-stacks of 3×2 μm images were taken with a confocal microscope and stacks were afterwards combined to maximal projection images. The area of the spiral ganglion was selected and measured using ImageJ.
The NeuN-positive cells of the mice treated with neomycin (Neo), neomycin plus 6′-sialyllactose (Neo+6SL) or vehicle control (PBS) within the chosen area were counted and the neuronal density of the spiral ganglion was calculated and normalized to the PBS treated condition. […] Data were analyzed by one-way ANOVA with Bonferroni post-hoc correction (*p<0.05).

[3] = tested on: hair cells of the middle turn of the cochlea; test: Hair cell count (Myo7A+ cells) in the cochlea, animal model of antibiotic-induced hearing loss; format: in vivo, mouse; details: seven consecutive days
Description: One-week old BL6 pubs of mice were treated subcutaneously with either 50 μl PBS, 50 μl of 200 mg/kgbw neomycin (Sigma, N5285) in PBS, or 50 μl of 200 mg/kgbw neomycin (Sigma, N5285) plus 100 mg/kgbw 6′-sialyllactose (Carbosynth, OS04398) in PBS for seven consecutive days. Mice were sacrificed two weeks after the last injection. For further investigations cochlea of the mice were isolated, post-fixed in 4% PFA, decalcified in 5% EDTA, incubated in 30% sucrose until fully soaked, embedded in a cryoprotectant and cut into 20 μm thin slices from the apex to base of the cochlea with a cryostat. For quantification of the hair cell density in the cochlea, cryosections from different levels of the cochlea were chosen and co-stained with antibodies against the hair cell marker Myosin7A (Myo7A) and the cellular nuclei marker DAPI. Images were taken with a confocal microscope and divided into different sections from apex to base of the cochlea. Myosin7a-positive cells were counted in each section.

[4] = tested on: human iPS cell-derived sensory neurons co-cultured with human THP1-macrophages; test: Neural branches length in co-culture of iPS cell-derived sensory neurons and THP1 macrophages; format: cell-based; details: neurons plus THP1 macrophages, 100 μM 6′-sialyllactose, 48 hours; vs co-culture without 6′-sialyllactose
Description: The effect of 6′-sialyllactose on sensory neural branches was determined in a human co-culture system with induced pluripotent stem cell derived sensory neurons and human THP1-macrophages.
Human sensory neurons were obtained from human induced pluripotent stem (iPS) cells. At day 0, the iPS colonies were detached by collagenase IV, collected by sedimentation, and resuspended in DMEM/F12 medium supplemented by 20% KO serum, 1% nonessential amino acids, 10 μM SB (SB-431542, inhibitor of TGF-beta), 1 μM dorsomorphin, 3 μM CHIR, and 0.5 μM purmorphamine for 2 days. […] Afterwards, the neural stem cells (NSCs) were ready for differentiation. […]
The human THP1 mononuclear phagocyte cell line was maintained in RPMI medium supplemented with 1% L-glutamine, 1% Penicillin/Streptomycin, 1% sodium-pyruvate, 1% heat-inactivated chicken serum, and 1% N2 supplement at 5% CO2 and 37° C. […] For experiments, THP-1 macrophages were scraped, counted and added to the sensory iPS cell-derived neurons in co-culture medium 1:1 ratio (N2B27 medium plus BDNF, GDNF, dbcAMP) and treated with 100 μM 6′-sialyllactose (Carbosynth), that was re-purified by a HPLC-based anion exchange chromatography before use, or vehicle control for another 48 hours. […]

[5] = mice, 200 mg/kgbw neomycin alone s.c., vs PBS

Compound	relative beads phagocytosis rate (cells having ingested 2 or more beads) (human THP-1 macrophages)	CD68+ cells per area in the spiral ganglion [1, 5]	NeuN-positive cells in the spiral ganglion [2, 5]	Myo7A-positive hair cells of the middle turn of the cochlear organ of Corti [3, 5]	relative neural branches length [4]	CD68+ macrophages per area in the spiral ganglion (macrophage activation), normalized to PBS ([1]; one-week old C57BL/6 mice, 200 mg/kgbw neomycin plus 100 mg/kgbw 6′-sialyllactose s.c., sacrificed two weeks after last injection, vs neomycin alone)	NeuN-positive cells (neuronal density) in the spiral ganglion, normalized to PBS ([2]; one-week old C57BL/6 mice, 200 mg/kgbw neomycin plus 100 mg/kgbw 6′-sialyllactose s.c., vs neomycin alone)	Myo7A-positive hair cells of the middle turn of the cochlea per slice ([3]; one-week old BL6 mice, 200 mg/kgbw neomycin plus 100 mg/kgbw 6′-sialyllactose s.c., vs neomycin alone)
CC(=O)NC1C(O)CC(OC2C(O)C(CO)OC(OC3C(CO)OC(O)C(O)C3O)C2O)(C(=O)O)OC1[C@H](O)[C@H](O)CO (stereo partly drawn) [3′-sialyllactose, reference compound]	had no effect on the LPS-induced uptake of beads; also recorded: only showed a tendency without significance							
NC[C@@H]1O[C@H](O[C@H]2[C@@H](O)[C@H](O[C@@H]3[C@@H](O)[C@H](N)C[C@H](N)[C@H]3O[C@H]3O[C@H](CN)[C@@H](O)[C@H](O)[C@H]3N)O[C@@H]2CO)[C@H](N)[C@@H](O)[C@@H]1O [neomycin, reference compound]		strongly increases the number of mononuclear phagocytes	reduction	strong reduction				
Neu5Ac-α(2→6)-Gal-β(1→4)-Glc [6′-sialyllactose]	reduced the phagocytic uptake of microsphere beads; also recorded: reduced phagocytosis of beads				could prevent the reduction in neural branches length	slight attenuation of macrophage activation; also recorded: might partially be prevented	less present; also recorded: might reduce the neomycin-induced loss of the sensory neurons	partially rescued; also recorded: reduced the neomycin-induced loss of the hair cells
